{
  "source": "patent US20100179188A1",
  "about": "“NITROXIDE RADICAL AS TREATMENT FOR NEURODEGENERATION” (Office of Technology Transfer, NIH, priority 2007, published 2010)",
  "key": {"[1]": {"biological_target": "T1, cytosolic aconitase (Mus musculus, UniProt P28271)", "T1 construct": "Embryonic fibroblasts of 13-day old embryos were isolated from wild type, IRP1−/− mice and IRP2−/− mice; endogenous in cells; host or cells: mouse embryonic fibroblasts (wild type and IRP2−/−)", "T1 sequence (P28271 1-889)": "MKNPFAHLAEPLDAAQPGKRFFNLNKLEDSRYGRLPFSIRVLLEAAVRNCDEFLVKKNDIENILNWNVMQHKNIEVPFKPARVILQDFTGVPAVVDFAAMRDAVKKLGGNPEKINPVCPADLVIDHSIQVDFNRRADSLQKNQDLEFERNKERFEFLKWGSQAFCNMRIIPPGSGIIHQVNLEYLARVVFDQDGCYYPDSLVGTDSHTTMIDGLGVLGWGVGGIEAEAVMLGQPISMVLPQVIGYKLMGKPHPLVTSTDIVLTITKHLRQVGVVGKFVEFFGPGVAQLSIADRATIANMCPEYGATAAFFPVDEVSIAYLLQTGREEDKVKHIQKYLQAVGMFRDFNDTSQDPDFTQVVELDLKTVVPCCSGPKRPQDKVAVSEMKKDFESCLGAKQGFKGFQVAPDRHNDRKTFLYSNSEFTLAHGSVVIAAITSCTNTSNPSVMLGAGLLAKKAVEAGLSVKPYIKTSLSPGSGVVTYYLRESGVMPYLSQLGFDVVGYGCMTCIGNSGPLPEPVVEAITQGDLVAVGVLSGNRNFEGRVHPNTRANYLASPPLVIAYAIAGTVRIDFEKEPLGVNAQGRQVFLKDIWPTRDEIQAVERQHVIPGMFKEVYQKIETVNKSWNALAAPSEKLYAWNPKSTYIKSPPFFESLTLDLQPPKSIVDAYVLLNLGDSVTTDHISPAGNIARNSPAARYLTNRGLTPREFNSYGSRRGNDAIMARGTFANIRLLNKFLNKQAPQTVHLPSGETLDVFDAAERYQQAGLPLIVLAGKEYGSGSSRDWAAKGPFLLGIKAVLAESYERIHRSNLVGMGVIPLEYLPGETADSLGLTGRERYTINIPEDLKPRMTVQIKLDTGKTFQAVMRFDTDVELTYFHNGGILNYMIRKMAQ", "test": "In-gel aconitase assay in mouse embryonic fibroblast lysates, cytosolic aconitase", "assay_type": "cell-based", "protocol": "(§1) Cells: Embryonic fibroblasts of 13-day old embryos were isolated from wild type, IRP1−/− mice and IRP2−/− mice as described in LaVaute et al. supra. Myc-tagged HEK 293 Tet-on cell line, in which IRP2 expression was inducible, was prepared and cultured as described Bourdon et al., Blood Cells Mol Dis, 31, 247-255 (2003). Erythroblasts were harvested from bone marrow and purified as described in Cooperman et al., Blood, 106, 1084-1091 (2005).\nAconitase assay: Aconitase activity gels for human lysates were performed as described in Tong et al., infra, and aconitase activity gels for mouse lysate were performed with the following modifications. The gel was composed of a separating gel containing 6% acrylamide, 132 mM Tris base, 66 mM borate, 3.6 mM citrate, and a stacking gel containing 4% acrylamide, 66 mM Tris base, 33 mM borate, 3.6 mM citrate. The running buffer contains 25 mM Tris pH 8.3, 96 mM glycine, and 3.6 mM citrate. Electrophoresis were carried out at 170 V at 4° C. Spectral aconitase activity was measured by following the method of Fillebeen et al., infra, using cis-aconitate as the substrate.\nTo confirm that nitroxide radicals activate IRP1 binding by disassembly of the iron-sulfur cluster, we performed in-gel aconitase assays to determine whether Tempo1 decreased the activity of cytosolic aconitase. […] The band that represented the cytosolic aconitase was readily identified by its absence in lysates from IRP1−/− cells. […]\nTo determine whether the effect of Tempo1 on IRP1 activity was kinetically consistent with oxidative disassembly of the iron sulfur cluster, the effect of Tempo1 on aconitase activity was compared to that of the iron chelator, deferiprone (DFO), which activates IRE-binding activity of IRP1 by limiting de novo synthesis and repair of the iron sulfur cluster in IRP1. […] Recovery of aconitase activity was assessed in wild type and IRP2−/− cells."}, "[2]": {"system": "IRP2−/− mice", "test": "Hematocrit (anemia) of IRP2−/− mice on Tempo1 diet", "assay_type": "in vivo", "protocol": "Diet: The mice were weaned 3-4 weeks after their birth. Immediately after weaning, mice were maintained on either a Tempo1-supplemented or control diet. In the Tempo1-supplemented diet, powdered Tempo1 was uniformly mixed with bacon-flavored mouse chow by a “cold press” technique (Bio-Serv, Frenchtown, N.J., USA) at a concentration of 10 mg/g of food. Bacon-flavored chow without Tempo1 was used as the control diet."}, "[3]": {"system": "L-ferritin (L-Ft)", "test": "Western blot of L-ferritin in IRP2−/− embryonic fibroblasts", "assay_type": "cell-based, mouse", "conditions": "0.3 and 1.0 mM, 16 h, with or without FAC", "protocol": "as §1\nWestern blotting and antibodies: Protein analysis was carried out as described in LaVaute et al., supra. Equal amounts of protein (20-40 μg/lane) were separated on 13% SDSPAGE and transferred to nitrocellulose membranes. The membrane was blocked with 5% non-fat milk, 0.1% Triton X-100 in PBS and probed at RT in the same blocking buffer. IRP1 antibody was prepared against purified hIRP1 and used at 1:5000 dilution. L-ferritin antibody was raised in rabbit from L-ferritin protein purified from mouse livers. […]\nTo study the effect of Tempo1 on the IRE-binding activity of IRP1, IRP2−/− embryonic fibroblasts that were maintained in culture supplemented with 0, 0.3 and 1.0 mM Tempo1, with or without ferric ammonium citrate (FAC), for 16 h. […] Quantification was performed with the IQMac (IRP1 activity) or NIH Image (protein levels) program. Error bars represent the standard deviation calculated from the results of two different sets of experiments."}},
  "data": [
    {"smiles": "CC1(C)CC(O)CC(C)(C)N1[O]", "note": "[Tempo1]", "values": [
      {"measurement": "activity of cytosolic aconitase", "setting": "[1]; lysates from WT and IRP2−/− embryonic fibroblasts", "result": "diminished"},
      {"measurement": "time to reversal of the loss of cytosolic aconitase activity after removal", "setting": "[1]; mouse embryonic fibroblasts, 16 hours treatment, then fresh unsupplemented media", "result": "≤ 2", "unit": "h"},
      {"measurement": "hematocrit", "setting": "[2]; IRP2−/− mice after 8 months of Tempo1 diet (untreated IRP2−/− 46±5, WT 52±2)", "result": "46±4"},
      {"measurement": "mild anemia of IRP2−/− mice", "setting": "[2]; IRP2−/− mice treated with Tempo1", "result": "did not improve"},
      {"measurement": "ferritin levels", "setting": "[3]", "result": "decreased"}
    ]}
  ]
}
